# Reference: US12655116B2, “Substituted isophthalic acid diamides” (Bayer Aktiengesellschaft, priority 2020, dated 2026)
# What was measured:
# [1] = system: ALOMY; test: Pre-emergence herbicidal action against ALOMY; format: in vivo, Alopecurus myosuroides
# Procedure, shortened: (§1)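 Greenhouse pots of sandy loam held seeds covered with soil, onto which the compound was applied before emergence. An aqueous suspension or emulsion of WP or EC was used at 600 to 800 l/ha with 0.2% wetting agent. Percent damage was judged visually at 3 weeks.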
# [2] = system: MATIN; test: Post-emergence herbicidal action against MATIN; format: in vivo, Matricaria inodora
# Procedure, shortened: (§2)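 A WP or EC formulation diluted in water with 0.2% wetting agent was sprayed at 600 to 800 l/ha onto one-leaf-stage plants grown in sandy loam. About 3 weeks later, action was rated visually in percent, 100% being dead plants.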
# [3] = system: PHBPU; test: Post-emergence herbicidal action against PHBPU; format: in vivo, Pharbitis purpurea; conditions: dosage 20 g/ha
# Procedure, shortened: as §2
# [4] = system: AVEFA; test: Pre-emergence herbicidal action against AVEFA; format: in vivo, Avena fatua; conditions: 80 g/ha, pre-emergence
# Procedure, shortened: as §1
# [5] = system: AMARE; test: Post-emergence herbicidal action against AMARE; format: in vivo, Amaranthus retroflexus; conditions: 20 g/ha, visual assessment about 3 weeks after treatment, 100% = plants have died, 0% = like control plants
# Procedure, shortened: as §2
# [6] = system: PHBPU; test: Pre-emergence herbicidal action against PHBPU; format: in vivo, Pharbitis purpurea; conditions: dosage 80 g/ha
# Procedure, shortened: as §1
# [7] = system: ABUTH; test: Pre-emergence herbicidal action against ABUTH; format: in vivo, Abutilon theophrasti
# Procedure, shortened: as §1
# [8] = system: VIOTR; test: Post-emergence herbicidal action against VIOTR; format: in vivo, Viola tricolor
# Procedure, shortened: as §2
# [9] = system: POLCO; test: Pre-emergence herbicidal action against POLCO; format: in vivo, Polygonum convolvulus
# Procedure, shortened: as §1
# [10] = system: AMARE; test: Pre-emergence herbicidal action against AMARE; format: in vivo, Amaranthus retroflexus
# Procedure, shortened: as §1
# [11] = system: ECHCG; test: Pre-emergence herbicidal action against ECHCG; format: in vivo, Echinochloa crus-galli
# Procedure, shortened: as §1
# [12] = system: SETVI; test: Pre-emergence herbicidal action against SETVI; format: in vivo, Setaria viridis; conditions: dosage 80 g/ha
# Procedure, shortened: as §1
# [13] = system: SETVI; test: Post-emergence herbicidal action against SETVI; format: in vivo, Setaria viridis
# Procedure, shortened: as §2
# [14] = system: MATIN; test: Pre-emergence herbicidal action against MATIN; format: in vivo, Matricaria inodora
# Procedure, shortened: as §1
# [15] = system: VERPE; test: Post-emergence herbicidal action against VERPE; format: in vivo, Veronica persica
# Procedure, shortened: as §2
# [16] = system: ECHCG; test: Post-emergence herbicidal action against ECHCG; format: in vivo, Echinochloa crus-galli
# Procedure, shortened: as §2
# [17] = system: ALOMY; test: Post-emergence herbicidal action against ALOMY; format: in vivo, Alopecurus myosuroides; conditions: dosage 20 g/ha, visual assessment about 3 weeks after treatment vs untreated controls
# Procedure, shortened: as §2
# [18] = system: VIOTR; test: Pre-emergence herbicidal action against VIOTR; format: in vivo, Viola tricolor
# Procedure, shortened: as §1
# [19] = system: ABUTH; test: Post-emergence herbicidal action against ABUTH; format: in vivo, Abutilon theophrasti; conditions: visual assessment about 3 weeks after treatment vs untreated controls
# Procedure, shortened: as §2
# [20] = system: VERPE; test: Pre-emergence herbicidal action against VERPE; format: in vivo, Veronica persica; conditions: Veronica persica, 504 h, dosage 80 g/ha
# Procedure, shortened: as §1
# [21] = system: DIGSA; test: Post-emergence herbicidal action against DIGSA; format: in vivo, Digitaria sanguinalis; conditions: Digitaria sanguinalis, 504 h
# Procedure, shortened: as §2
# [22] = system: DIGSA; test: Pre-emergence herbicidal action against DIGSA; format: in vivo, Digitaria sanguinalis; conditions: Digitaria sanguinalis, 504 h
# Procedure, shortened: as §1
# [23] = 80 g/ha, scored visually after 3 weeks vs untreated controls (100% = plants have died, 0% = like control plants)
# [24] = Tripleurospermum inodorum, 504 h, dosage 20 g/ha
compound,measurement,setting,value
CCc1c(C(=O)Nc2nnnn2C)ccc(C(F)(F)F)c1C(=O)NCC(F)F [Example 1-276],Pre-emergence action against ALOMY,"[1]; 20 g/ha, scored visually after 3 weeks, 100% = plants have died, 0% = like control plants",90%
same,Pre-emergence action against ALOMY (herbicidal activity),"[1]; 80 g/ha, pre-emergence, scored visually after 3 weeks vs untreated controls (100% = plants have died, 0% = like control plants)",100%
same,Post-emergence action against MATIN in %,[2]; dosage 20 g/ha,80%
same,Post-emergence action against PHBPU in %,[3],90%
same,Pre-emergence action against AVEFA in %,[4],90%
same,Post-emergence action at 20 g/ha against AMARE in %,[5],100%
same,Pre-emergence action against PHBPU in %,[6],90%
same,Pre-emergence action against ABUTH (herbicidal activity),[7]; [23],100%
same,Pre-emergence action against ABUTH (herbicidal activity in percent),"[7]; dosage 20 g/ha, scored visually after 3 weeks vs untreated controls, 100% = plants have died, 0% = like control plants",100%
same,Post-emergence action against VIOTR in %,[8]; 20 g/ha,80%
same,Pre-emergence action against POLCO in %,[9]; dosage 20 g/ha,80%
same,Pre-emergence action against POLCO in %,[9]; dosage 80 g/ha,90%
same,Pre-emergence action against AMARE in %,"[10]; 20 g/ha, scored visually after 3 weeks vs untreated controls, 100% = plants have died, 0% = like control plants",90%
same,Pre-emergence action against AMARE in %,[10]; [23],100%
same,Pre-emergence action against ECHCG in %,[11]; 80 g/ha,100%
same,Pre-emergence action against SETVI in %,[12],100%
same,Post-emergence action against SETVI in %,[13]; dosage 5 g/ha,80%
same,Post-emergence action against SETVI in %,[13]; dosage 20 g/ha,80%
same,Pre-emergence action against MATIN in %,[14]; dosage 20 g/ha,90%
same,Pre-emergence action against MATIN in %,[14]; dosage 80 g/ha,100%
same,Post-emergence action against VERPE in %,[15]; 20 g/ha,80%
same,Post-emergence action against ECHCG in %,[16]; dosage 20 g/ha,80%
same,Post-emergence action against ALOMY in %,[17],80%
same,Pre-emergence action against VIOTR in %,[18]; dosage 20 g/ha,80%
same,Pre-emergence action against VIOTR in %,[18]; dosage 80 g/ha,100%
same,Post-emergence action against ABUTH in %,[19]; dosage 5 g/ha,80%
same,Post-emergence action against ABUTH in %,[19]; dosage 20 g/ha,80%
CCNC(=O)c1c(C(F)F)ccc(C(=O)Nc2nnnn2C)c1CC [Example 1-278],pest or weed control at 80 g/ha,"[1]; Alopecurus myosuroides, 504 h, 80 g/ha, pre-emergence, scored visually after 3 weeks vs untreated controls (100% = plants have died, 0% = like control plants)",90%
same,pest or weed control at 5 g/ha,"[2]; Tripleurospermum inodorum, 504 h, dosage 5 g/ha",80%
same,pest or weed control at 20 g/ha,[2]; [24],90%
same,pest or weed control at 20 g/ha,"[3]; Ipomoea purpurea, 504 h",90%
same,pest or weed control at 80 g/ha,"[4]; Avena fatua, 504 h",90%
same,pest or weed control at 20 g/ha,"[5]; Amaranthus retroflexus, 504 h",90%
same,pest or weed control at 80 g/ha,[20],100%
same,pest or weed control at 80 g/ha,"[6]; Ipomoea purpurea, 504 h",90%
same,pest or weed control at 80 g/ha,"[7]; Abutilon theophrasti, 504 h, 80 g/ha, scored visually after 3 weeks vs untreated controls (100% = plants have died, 0% = like control plants)",100%
same,pest or weed control at 20 g/ha,"[7]; Abutilon theophrasti, 504 h, dosage 20 g/ha, scored visually after 3 weeks vs untreated controls, 100% = plants have died, 0% = like control plants, read-out: Pre-emergence action against ABUTH (herbicidal activity in percent)",90%
same,pest or weed control at 5 g/ha,[21]; 5 g/ha,90%
same,pest or weed control at 20 g/ha,[21]; 20 g/ha,90%
same,pest or weed control at 5 g/ha,"[8]; Viola tricolor, 504 h, 5 g/ha",90%
same,pest or weed control at 20 g/ha,"[8]; Viola tricolor, 504 h, 20 g/ha",90%
same,pest or weed control at 20 g/ha,"[9]; Fallopia convolvulus, 504 h, dosage 20 g/ha",90%
same,pest or weed control at 80 g/ha,"[9]; Fallopia convolvulus, 504 h, dosage 80 g/ha",100%
same,pest or weed control at 20 g/ha,"[10]; Amaranthus retroflexus, 504 h, 20 g/ha, scored visually after 3 weeks vs untreated controls, 100% = plants have died, 0% = like control plants",100%
same,pest or weed control at 80 g/ha,"[10]; Amaranthus retroflexus, 504 h, 80 g/ha, scored visually after 3 weeks vs untreated controls, 100% = plants have died, 0% = like control plants",100%
same,pest or weed control at 20 g/ha,"[11]; Echinochloa crus-galli, 504 h, 20 g/ha",90%
same,pest or weed control at 80 g/ha,"[11]; Echinochloa crus-galli, 504 h, 80 g/ha",100%
same,pest or weed control at 80 g/ha,"[12]; Setaria viridis, 504 h",100%
same,pest or weed control at 20 g/ha,"[13]; Setaria viridis, 504 h, dosage 20 g/ha",90%
same,pest or weed control at 20 g/ha,[14]; [24],100%
same,pest or weed control at 80 g/ha,"[14]; Tripleurospermum inodorum, 504 h, dosage 80 g/ha",100%
same,pest or weed control at 5 g/ha,"[15]; Veronica persica, 504 h, 5 g/ha",80%
same,pest or weed control at 20 g/ha,"[15]; Veronica persica, 504 h, 20 g/ha",90%
same,pest or weed control at 20 g/ha,[22]; dosage 20 g/ha,100%
same,pest or weed control at 80 g/ha,[22]; dosage 80 g/ha,100%
same,pest or weed control at 5 g/ha,"[16]; Echinochloa crus-galli, 504 h, dosage 5 g/ha",90%
same,pest or weed control at 20 g/ha,"[16]; Echinochloa crus-galli, 504 h, dosage 20 g/ha",90%
same,pest or weed control at 20 g/ha,"[18]; Viola tricolor, 504 h, dosage 20 g/ha",100%
same,pest or weed control at 80 g/ha,"[18]; Viola tricolor, 504 h, dosage 80 g/ha",100%
same,pest or weed control at 5 g/ha,"[19]; Abutilon theophrasti, 504 h, dosage 5 g/ha",80%
same,pest or weed control at 20 g/ha,"[19]; Abutilon theophrasti, 504 h, dosage 20 g/ha",90%
